Reference: ChEMBL document CHEMBL4339253, “Anthraquinone-Based Specialized Metabolites from Rhizomes of Bulbine natalensis” (J Nat Prod, 2019)
Active and inactive are the calls of the source. The calls are words filed in the database; no cut-off is given here.

Key:
Format in all cases: functional, organism-based
[1] = tested on: Staphylococcus aureus; assay: Antimicrobial activity against methicillin-resistant Staphylococcus aureus ATCC 43300 assessed as inhibition of microbial growth by CLSI based method
[2] = tested on: Aspergillus fumigatus; assay: Antimicrobial activity against Aspergillus fumigatus ATCC 90906 assessed as inhibition of microbial growth by CLSI based method
[3] = tested on: Candida albicans; assay: Antimicrobial activity against Candida albicans ATCC 90028 assessed as inhibition of microbial growth by CLSI based method
[4] = tested on: Cryptococcus neoformans; assay: Antimicrobial activity against Cryptococcus neoformans ATCC 90113 assessed as inhibition of microbial growth by CLSI based method
[5] = tested on: Staphylococcus aureus; assay: Antimicrobial activity against methicillin-resistant Staphylococcus aureus ATCC 43300 assessed as inhibition of microbial growth up to 20 ug/mL by CLSI based method
[6] = tested on: Pseudomonas aeruginosa; assay: Antimicrobial activity against Pseudomonas aeruginosa ATCC 27853 assessed as inhibition of microbial growth up to 20 ug/mL by CLSI based method
[7] = tested on: Mycobacterium intracellulare; assay: Antimicrobial activity against Mycobacterium intracellulare assessed as inhibition of microbial growth up to 20 ug/mL
[8] = tested on: Escherichia coli; assay: Antimicrobial activity against Escherichia coli ATCC 35218 assessed as inhibition of microbial growth up to 20 ug/mL by CLSI based method
[9] = tested on: Aspergillus fumigatus; assay: Antimicrobial activity against Aspergillus fumigatus ATCC 90906 assessed as inhibition of microbial growth up to 20 ug/mL by CLSI based method
[10] = tested on: Candida albicans; assay: Antimicrobial activity against Candida albicans ATCC 90028 assessed as inhibition of microbial growth up to 20 ug/mL by CLSI based method
[11] = tested on: Cryptococcus neoformans; assay: Antimicrobial activity against Cryptococcus neoformans ATCC 90113 assessed as inhibition of microbial growth up to 20 ug/mL by CLSI based method
[12] = tested on: Escherichia coli; assay: Antimicrobial activity against Escherichia coli ATCC 35218 assessed as inhibition of microbial growth by CLSI based method
[13] = tested on: Pseudomonas aeruginosa; assay: Antimicrobial activity against Pseudomonas aeruginosa ATCC 27853 assessed as inhibition of microbial growth by CLSI based method

| SMILES | IC50 [1] | IC50 [2] | IC50 [3] | IC50 [4] | growth inhibition (GI) [5] | growth inhibition (GI) [6] | growth inhibition (GI) [7] | growth inhibition (GI) [8] | growth inhibition (GI) [9] | growth inhibition (GI) [10] | growth inhibition (GI) [11] | IC50 [12] | IC50 [13] |
| --- | --- | --- | --- | --- | --- | --- | --- | --- | --- | --- | --- | --- | --- |
| C[C@@H]1[C@H](O)[C@@H](C)/C=C/C=C/C=C/C=C/C=C/C=C/C=C/[C@H](O[C@@H]2O[C@H](C)[C@@H](O)[C@H](N)[C@@H]2O)C[C@@H]2O[C@](O)(C[C@@H](O)C[C@@H](O)[C@H](O)CC[C@@H](O)C[C@@H](O)CC(=O)O[C@H]1C)C[C@H](O)[C@H]2C(=O)O [AMPHOTERICIN B] | > 100 µM | 1 µM | < 0.1 µM | 0.2 µM | – | – | – | – | – | – | – | – | – |
| Cc1cc(O)c2c(c1)C(O)([C@@H]1O[C@@H](C)[C@H](O)[C@@H](O)[C@H]1O)c1ccc([C@H]3c4cccc(O)c4C(=O)c4c(O)cc(C)c(O[C@@H]5OC[C@@H](O)[C@H](O)[C@H]5O)c43)c(O)c1C2=O (some centres undefined) | – | – | – | – | inactive | inactive | inactive | inactive | inactive | inactive | inactive | – | – |
| C[C@@H](O)[C@H]1C(=O)N2C(C(=O)O)=C(S[C@@H]3CN[C@H](C(=O)N(C)C)C3)[C@H](C)[C@H]12 [MEROPENEM] | 10 µM | > 300 µM | > 300 µM | > 300 µM | – | – | – | – | – | – | – | 0.01 µM | 0.02 µM |
| CC1=CC(O)=C2C(=O)c3c(O[C@@H]4O[C@H](CO)[C@@H](O)[C@H](O)[C@H]4O)cccc3C(c3ccc4c(c3O)C(=O)c3c(O)cc(C)cc3C4(O)[C@@H]3O[C@@H](C)[C@H](O)[C@@H](O)[C@H]3O)=C2C1=O (some centres undefined) | – | – | – | – | inactive | inactive | inactive | inactive | inactive | inactive | inactive | – | – |
| COc1cc(OC)c(C2=C3C(=O)C(C)=CC(O)=C3C(=O)c3c(O)cccc32)c(O)c1C(C)=O | – | – | – | – | inactive | inactive | inactive | inactive | inactive | inactive | inactive | – | – |
| OC(Cn1cncn1)(Cn1cncn1)c1ccc(F)cc1F [FLUCONAZOLE] | > 300 µM | > 300 µM | – | 5 µM | – | – | – | – | – | – | – | > 0.3 µM | > 0.3 µM |
| CC1=CC(O)=C2C(=O)c3c(O)cccc3C(c3ccc4c(c3O)C(=O)c3c(O)cc(C)cc3C4=O)=C2C1=O | – | – | – | – | inactive | inactive | inactive | inactive | inactive | inactive | inactive | – | – |
| COc1cccc(OC)c1C(=O)N[C@@H]1C(=O)N2[C@@H]1SC(C)(C)[C@@H]2C(=O)O [METHICILLIN] | 30 µM | > 300 µM | > 300 µM | > 300 µM | – | – | – | – | – | – | – | – | 0.3 µM |
| CO/N=C(\C(=O)N[C@@H]1C(=O)N2C(C(=O)O)=C(COC(C)=O)CS[C@H]12)c1csc(N)n1 [CEFOTAXIME] | 30 µM | > 200 µM | > 200 µM | > 200 µM | – | – | – | – | – | – | – | 0.1 µM | 0.03 µM |
| COc1cc(O)c(C(C)=O)c(O)c1C1=C(C)C=C(O)C2C(=O)c3c(O)cccc3C(=O)C12 (centres undefined) | – | – | – | – | inactive | inactive | inactive | inactive | inactive | inactive | inactive | – | – |
| COc1cccc2cc3c(c(O)c12)[C@@H](C)OC3 | – | – | – | – | inactive | inactive | inactive | inactive | inactive | inactive | inactive | – | – |
| COc1cc(OC)c(C2=C(C)C=C(O)C3C(=O)c4c(O)cccc4C(=O)C23)c(O)c1C(C)=O (centres undefined) | – | – | – | – | inactive | inactive | inactive | inactive | inactive | inactive | inactive | – | – |
| CN[C@H](CC(C)C)C(=O)N[C@H]1C(=O)N[C@@H](CC(N)=O)C(=O)N[C@H]2C(=O)N[C@H]3C(=O)N[C@H](C(=O)N[C@H](C(=O)O)c4cc(O)cc(O)c4-c4cc3ccc4O)[C@H](O)c3ccc(c(Cl)c3)Oc3cc2cc(c3O[C@@H]2O[C@H](CO)[C@@H](O)[C@H](O)[C@H]2O[C@H]2C[C@](C)(N)[C@H](O)[C@H](C)O2)Oc2ccc(cc2Cl)[C@H]1O [VANCOMYCIN] | 0.4 µM | > 70 µM | > 70 µM | > 70 µM | – | – | – | – | – | – | – | 0.04 µM | > 0.07 µM |
| COc1cc(OC)c(C2=C(C)C=C(O)C3C(=O)c4c(O[C@@H]5O[C@H](CO[C@@H]6O[C@H](CO)[C@@H](O)[C@H](O)[C@H]6O)[C@@H](O)[C@H](O)[C@H]5O)cccc4C(=O)C23)c(O)c1C(C)=O (some centres undefined) | – | – | – | – | inactive | inactive | inactive | inactive | inactive | inactive | inactive | – | – |
| COc1cc(O)c2c(c1)C(=O)c1cc(O[C@@H]3O[C@H](CO)[C@@H](O)[C@H](O)[C@H]3O)c(C(=O)O)c(C)c1C2=O | – | – | – | – | inactive | inactive | inactive | inactive | inactive | inactive | inactive | – | – |
| Cc1cc(O)c2c(c1)C(O)([C@@H]1O[C@@H](C)[C@H](O)[C@@H](O)[C@H]1O)c1ccc([C@H]3c4cccc(O)c4C(=O)c4c(O)cc(C)c(O)c43)c(O)c1C2=O (some centres undefined) | 20 µM | > 30 µM | > 30 µM | > 30 µM | – | – | – | – | – | – | – | – | – |
